Assay results taken from patent US20240238426A1, “PROTEIN ACYLATION MODULATION BY HETEROBIFUNCTIONAL MOLECULES” (THE SCRIPPS RESEARCH INSTITUTE, priority 2021, published 2024).

Assays:
FKBP12^F36V = biological target: T1, FKBP12^F36V (Homo sapiens, UniProt P62942, F37V); assay: AceTAG-1 target engagement: FKBP-p photo-crosslinking probe competition in HEK293T cells; format: cell-based; details: 0.5 μM FKBP-p probe, increasing concentrations of AceTAG-1, 30 min, FIG. 3E
T1 construct: expressed in transfected cells; host or cells: HEK293T (transient)
Method: AceTAG-1 Target Engagement: At 50%-70% confluency, HEK293t cells in 6-well plates were transfected with pLEX305-C-dTAG-H3.3. After 24 h, cells were co-treated for 30 min with 0.5 μM FKBP-p probe and increasing concentration of AceTAG-1 in serum-free DMEM media. Cells then underwent UV-photocrosslinking (365 nm) for 20 min at 4° C., harvested in cold DPBS by scraping and centrifugation, cell pellets were washed with cold DPBS two times and aspirated. Cells were then lysed in 400 μL DPBS buffer supplemented with 0.2% SDS (w/v) and 1X Halt protease inhibitor cocktail. Lysate was then normalized to 1.5 mg/mL. […] Proteins (25 μg total protein loaded per gel lane) were resolved using SDS-PAGE (10% acrylamide) and visualized by in-gel fluorescence on Bio-Rad ChemiDoc MP Imaging System. Gel fluorescence and imaging was processed using Image Lab (v 6.0.1) software. […] Chemiluminescence was recorded with Bio-Rad ChemiDoc MP Imaging System and processed using Image Lab (v 6.0.1) software.

p21 [1] = assay: qPCR analysis of p21 mRNA level in FKBP12^F36V-p53 H1299 cells; format: cell-based, Human; details: indicated doses, 8 hr, FIG. 7C
p300 = biological target: T2, p300 (Homo sapiens, UniProt Q09472); assay: In-situ photocrosslinking with p300-p probe and competition by AceTAG-1 in HEK293T cells; format: cell-based; details: increasing concentrations of AceTAG-1, 30 min, FIG. 3F
T2 construct: expressed in transfected cells; host or cells: HEK293T (transient)
Method: In-situ photocrosslinking with p300-BRD photocrosslinking probe and competition by AceTAG-1: At 50%-70% confluency, HEK293t cells in 6-well plates were transfected with pSG5-HA-p300. After 24 h, cells were co-treated for 30 min with […] p300-p probe and increasing concentration of AceTAG-1 in serum-free media. Cells then underwent UV-photocrosslinking (365 nm) for 20 min at 4° C. and harvested in cold DPBS by scraping and centrifugation. Cell pellets were washed with cold DPBS two times and aspirated. Cells were then lysed in 200 μL DPBS buffer supplemented with 1X Halt protease inhibitor cocktail. Lysate was fractionated by ultracentrifuge (100000 g, 45 min, 4° C.) to provide soluble fraction (supernatant) and membrane fraction (pellets). Soluble fraction was normalized to 2 mg/mL, underwent click reaction with Rhodamine-azide as previously described. Proteins (25 μg total protein loaded per gel lane) were resolved using SDS-PAGE (6% acrylamide). In-gel fluorescence visualization and immunoblot analysis was carried out as previously described.

p21 [2] = assay: Immunoblot of p21 expression in p53 H1299 cells without the FKBP12^F36V tag; format: cell-based, Human; details: indicated doses, 8 hr, FIG. 7D
Method: Immunoblotting: Cells were harvested in cold DPBS by scraping and washed with cold DPBS twice. Cell pellets were resuspended in DPBS supplemented with 5 mM sodium butyrate, 20 mM Nicotinamide, and 1X Halt Protease Inhibitor Cocktail and lysed by sonication (15 ms on, 40 ms off, 15% amplitude, 1s total on x 3). Protein concentration was determined using DC Protein Assay (Bio-Rad) and absorbance read using a CLARIOstar plate reader following manufacturer's instructions. Samples with equal protein content were boiled in 4X SDS gel loading buffer for 10 min. Proteins were separated by 10%, 12.5%, or 15% SDS-polyacrylamide gel electrophoresis and transferred to PVDF membranes using Trans-Blot Turbo RTA Mini […] LF PVDF Transfer Kit (Bio-Rad). Membranes were incubated for 1 h at room temperature with blocking buffer, followed by incubating overnight at 4° C. with primary antibodies. After washing in TBST, the secondary antibodies were incubated with the membranes at room temperature for 1 h. The membranes were washed with TBST for three times and visualized on a Bio-Rad ChemiDoc MP Imaging System with Clarity Max Western ECL substrate (Bio-Rad) or SuperSignal West Femto Chemiluminescent substrate proprietary luminol and peroxide solution kit (Thermo Scientific Pierce).

T2 sequence (Q09472 whole entry, species assumed): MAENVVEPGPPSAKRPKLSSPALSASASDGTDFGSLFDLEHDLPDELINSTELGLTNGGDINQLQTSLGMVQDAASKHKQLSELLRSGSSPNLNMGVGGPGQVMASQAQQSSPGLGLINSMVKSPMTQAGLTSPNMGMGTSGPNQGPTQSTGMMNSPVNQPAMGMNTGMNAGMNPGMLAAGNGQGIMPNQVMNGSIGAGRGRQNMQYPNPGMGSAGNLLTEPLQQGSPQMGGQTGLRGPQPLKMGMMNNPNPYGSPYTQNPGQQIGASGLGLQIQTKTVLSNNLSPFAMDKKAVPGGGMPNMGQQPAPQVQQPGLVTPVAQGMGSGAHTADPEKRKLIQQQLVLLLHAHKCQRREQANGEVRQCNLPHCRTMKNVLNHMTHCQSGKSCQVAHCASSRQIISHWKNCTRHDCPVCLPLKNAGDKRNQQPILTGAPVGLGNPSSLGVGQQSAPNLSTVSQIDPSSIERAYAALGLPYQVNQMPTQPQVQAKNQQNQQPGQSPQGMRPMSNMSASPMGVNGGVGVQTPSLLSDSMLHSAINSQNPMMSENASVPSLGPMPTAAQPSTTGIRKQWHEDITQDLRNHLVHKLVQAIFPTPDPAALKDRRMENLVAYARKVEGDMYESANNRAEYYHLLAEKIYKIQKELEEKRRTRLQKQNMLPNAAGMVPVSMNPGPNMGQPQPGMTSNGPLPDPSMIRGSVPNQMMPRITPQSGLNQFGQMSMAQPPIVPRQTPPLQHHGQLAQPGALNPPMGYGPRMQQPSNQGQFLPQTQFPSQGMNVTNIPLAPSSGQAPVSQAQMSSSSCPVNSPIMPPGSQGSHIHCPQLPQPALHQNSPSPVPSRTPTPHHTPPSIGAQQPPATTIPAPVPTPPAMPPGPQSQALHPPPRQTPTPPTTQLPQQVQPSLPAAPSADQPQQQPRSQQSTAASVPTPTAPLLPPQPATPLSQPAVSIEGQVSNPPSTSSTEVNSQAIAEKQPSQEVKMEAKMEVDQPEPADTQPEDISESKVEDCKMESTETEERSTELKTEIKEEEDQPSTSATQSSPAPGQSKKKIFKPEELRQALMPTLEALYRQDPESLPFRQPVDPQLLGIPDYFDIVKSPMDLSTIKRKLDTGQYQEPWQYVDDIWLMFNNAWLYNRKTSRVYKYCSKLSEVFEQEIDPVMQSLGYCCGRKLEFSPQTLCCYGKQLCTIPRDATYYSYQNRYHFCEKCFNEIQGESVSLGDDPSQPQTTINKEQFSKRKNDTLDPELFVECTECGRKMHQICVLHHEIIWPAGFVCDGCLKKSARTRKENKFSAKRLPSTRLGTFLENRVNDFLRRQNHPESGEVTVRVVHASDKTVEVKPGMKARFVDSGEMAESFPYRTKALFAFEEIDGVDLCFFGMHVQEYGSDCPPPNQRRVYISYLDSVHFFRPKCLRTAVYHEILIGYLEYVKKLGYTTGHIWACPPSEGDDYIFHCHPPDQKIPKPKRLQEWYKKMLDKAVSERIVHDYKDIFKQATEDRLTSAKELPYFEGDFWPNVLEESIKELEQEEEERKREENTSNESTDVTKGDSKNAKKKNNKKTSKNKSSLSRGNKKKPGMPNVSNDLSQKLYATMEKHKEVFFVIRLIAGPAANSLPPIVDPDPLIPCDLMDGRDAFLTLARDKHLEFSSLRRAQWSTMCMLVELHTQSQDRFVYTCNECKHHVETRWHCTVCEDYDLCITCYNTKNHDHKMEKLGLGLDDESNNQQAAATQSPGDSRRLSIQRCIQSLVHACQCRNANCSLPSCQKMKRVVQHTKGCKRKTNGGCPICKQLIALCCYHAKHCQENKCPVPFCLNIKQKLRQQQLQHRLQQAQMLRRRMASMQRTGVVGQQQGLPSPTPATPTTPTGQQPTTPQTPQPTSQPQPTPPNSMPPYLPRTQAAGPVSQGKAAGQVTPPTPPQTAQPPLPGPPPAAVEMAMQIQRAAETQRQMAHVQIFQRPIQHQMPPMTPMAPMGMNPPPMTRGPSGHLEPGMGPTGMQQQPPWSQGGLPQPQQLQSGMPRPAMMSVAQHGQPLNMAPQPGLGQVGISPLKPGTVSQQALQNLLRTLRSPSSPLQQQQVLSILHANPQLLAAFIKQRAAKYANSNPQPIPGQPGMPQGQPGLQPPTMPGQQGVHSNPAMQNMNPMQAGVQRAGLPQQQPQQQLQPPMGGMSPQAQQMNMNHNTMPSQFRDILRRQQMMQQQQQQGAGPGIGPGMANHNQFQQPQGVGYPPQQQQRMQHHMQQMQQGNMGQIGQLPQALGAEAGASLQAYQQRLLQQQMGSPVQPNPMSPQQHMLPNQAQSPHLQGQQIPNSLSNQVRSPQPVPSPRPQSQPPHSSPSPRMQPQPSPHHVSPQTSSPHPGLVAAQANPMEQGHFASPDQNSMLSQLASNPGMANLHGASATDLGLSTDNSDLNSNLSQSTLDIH
T1 sequence (P62942 2-108 F37V limits assumed): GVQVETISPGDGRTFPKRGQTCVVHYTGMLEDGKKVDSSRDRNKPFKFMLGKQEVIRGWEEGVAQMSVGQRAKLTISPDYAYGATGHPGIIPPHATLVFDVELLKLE

With CC[C@H](C(=O)N1CCCC[C@H]1C(=O)O[C@H](CCc1ccc(OC)c(OC)c1)c1cccc(OCC(=O)NCCOCCOCCC(=O)NCCOc2ccc(CCc3nc4cc(-c5c(C)noc5C)ccc4n3CCN3CCOCC3)cc2)c1)c1cc(OC)c(OC)c(OC)c1 [AceTAG-1, (R)-3-(3,4-dimethoxyphenyl)-1-(3-((15-(4-(2-(5-(3,5-dimethylisoxazol-4-yl)-1-(2-morpholinoethyl)-1H-benzo[d]imidazol-2-yl)ethyl)phenoxy)-2,12-dioxo-6,9-dioxa-3,13-diazapentadecyl)oxy)phenyl)propyl (S)-1-((S)-2-(3,4,5-trimethoxyphenyl)butanoyl)piperidine-2-carboxylate] the “competition of FKBP-p probe binding to FKBP12^F36V” value (FKBP12^F36V) was “efficiently competed”, the “transcription of p21 (mRNA, qPCR)” value (p21 [1]) was “confirmed” and the “competition of p300-p probe binding to p300” value (p300) was “efficiently competed”. The “p21 induction in H1299 cells expressing p53 without the FKBP12^F36V tag” value (p21 [2]) was “not observed”.
